{"source": "patent US20070128217A1", "about": "(priority 2003, published 2007)", "key": {"[1]": {"test_system": "antibodies in sera from SARS patients (sera 1a, 1b, 2, 6, 37, 62, London, SARS-yellow, SARS-green)", "format": "binding, human", "parameters": "Binding of serum 6 to linear peptides of protein X1 of SARS-CoV Urbani / Binding of serum 37 to linear peptides of protein X1 of SARS-CoV Urbani / Binding of serum 6 to looped/cyclic peptide (PEPSCAN-ELISA) / Binding of serum 37 to looped/cyclic peptide (PEPSCAN-ELISA) / Binding of serum 37 to looped/cyclic peptides of protein X1 of SARS-CoV Urbani / Binding of serum 6 to linear peptides of protein X2 / Binding of serum 37 to linear peptides of protein X2 / Binding of serum 37 to looped/cyclic peptides of protein X2 of SARS-CoV Urbani / Binding of serum 6 to linear peptides of protein M of SARS-CoV Urbani / Binding of serum 37 to linear peptides of protein M of SARS-CoV Urbani / Binding of serum 6 to looped/cyclic peptides of protein M of SARS-CoV Urbani / Binding of serum 37 to looped/cyclic peptides of protein M of SARS-CoV Urbani / Binding of serum 6 to linear peptides of protein X3 of SARS-CoV Urbani / Binding of serum 37 to linear peptides of protein X3 of SARS-CoV Urbani / Binding of serum 37 to looped/cyclic peptides of protein X3 of SARS-CoV Urbani / Binding of serum 6 to linear peptides of protein X4 of SARS-CoV Urbani / Binding of serum 37 to linear peptides of protein X4 of SARS-CoV Urbani / Binding of serum 37 to looped/cyclic peptides of protein X4 of SARS-CoV Urbani / Binding of serum 6 to linear peptides of protein X5 of SARS-CoV Urbani / Binding of serum 37 to linear peptides of protein X5 of SARS-CoV Urbani / Binding of serum 37 to looped/cyclic peptides of protein X5 of SARS-CoV Urbani / Binding of serum 6 to linear peptides of protein N of SARS-CoV Urbani / Binding of serum 37 to linear peptides of protein N of SARS-CoV Urbani / Binding of serum 6 to linear peptide (PEPSCAN-ELISA) / Binding of serum 1a to looped/cyclic peptides of protein N of SARS-CoV Urbani / Binding of serum 1b to looped/cyclic peptides of protein N of SARS-CoV Urbani / Binding of serum 2 to looped/cyclic peptides of protein N of SARS-CoV Urbani / Binding of serum 6 to looped/cyclic peptides of protein N of SARS-CoV Urbani / Binding of serum 37 to looped/cyclic peptides of protein N of SARS-CoV Urbani / Binding of serum 62 to looped/cyclic peptides of protein N of SARS-CoV Urbani / Binding of serum London to looped/cyclic peptides of protein N of SARS-CoV Urbani / Binding of serum SARS-green to looped/cyclic peptides of protein N of SARS-CoV Urbani: unit not given here"}, "[2]": {"test_system": "rabbit serum obtained by immunizing a rabbit with the SARS-CoV strain Frankfurt 1", "format": "binding", "parameters": "Binding of a rabbit serum to linear peptides / Binding of a rabbit serum to looped peptides / Rabbit serum linear peptides / Rabbit serum looped peptides / Binding of a rabbit serum to linear peptides of protein N of SARS-CoV Urbani (Rabbit serum linear peptides) / Binding of a rabbit serum to looped/cyclic peptides of protein N of SARS-CoV Urbani (Rabbit serum looped peptides): unit not given here"}, "[3]": {"test_system": "control sera (pooled serum of ten healthy LUMC hospital workers; commercial negative donor pooled serum from the Dutch bloodbank)", "format": "binding, human", "parameters": "Binding of Control serum LUMC to linear peptides / Binding of Control serum Blood-bank to linear peptides / Binding of Control serum LUMC to looped peptides / Binding of Control Serum Blood-Bank to Looped peptides / Binding of Control serum LUMC to linear peptides of the protein M of SARS-CoV Urbani / Binding of Control serum Blood-bank to linear peptides of the protein M of SARS-CoV Urbani / Binding of Control serum LUMC to looped peptides of the protein M of SARS-CoV Urbani / Binding of Control Serum Blood-Bank to Looped peptides of the protein M of SARS-CoV Urbani: unit not given here"}}}
{"sequence": "NILLNVPLRGTIVTR", "values": [{"measurement": "Binding of serum 1a to linear peptides of protein M of SARS-CoV Urbani", "setting": "[1]", "value": 0.7}, {"measurement": "Binding of serum 1b to linear peptides of protein M of SARS-CoV Urbani", "setting": "[1]", "value": 0.5}, {"measurement": "Binding of serum 2 to linear peptides of protein M of SARS-CoV Urbani", "setting": "[1]", "value": 0.8}, {"measurement": "Binding of serum 6 to linear peptides of protein M of SARS-CoV Urbani", "setting": "[1]", "value": 0.4}, {"measurement": "Binding of serum 37 to linear peptides of protein M of SARS-CoV Urbani", "setting": "[1]", "value": 0.6}, {"measurement": "Binding of serum 62 to linear peptides of protein M of SARS-CoV Urbani", "setting": "[1]", "value": 0.7}, {"measurement": "Binding of serum London to linear peptides of protein M of SARS-CoV Urbani", "setting": "[1]", "value": 0.4}, {"measurement": "Binding of serum SARS-green to linear peptides of protein M of SARS-CoV Urbani", "setting": "[1]", "value": 0.3}, {"measurement": "Binding of serum SARS-yellow to linear peptides of protein M of SARS-CoV Urbani", "setting": "[1]", "value": 0.1}, {"measurement": "Recognition of the peptide by sera of SARS-CoV infected individuals, and form (linear, looped/cyclic) in which it is recognized", "setting": "[1]", "value": "recognized in looped/cyclic form"}, {"measurement": "Rabbit serum linear peptides", "setting": "[2]", "value": 0.5}, {"measurement": "Rabbit serum looped peptides", "setting": "[2]", "value": 0.4}, {"measurement": "Binding of Control Serum Blood-Bank to Looped peptides of the protein M of SARS-CoV Urbani", "setting": "[3]", "value": 0.8}, {"measurement": "Binding of Control serum Blood-bank to linear peptides of the protein M of SARS-CoV Urbani", "setting": "[3]", "value": 0.8}, {"measurement": "Binding of Control serum LUMC to linear peptides of the protein M of SARS-CoV Urbani", "setting": "[3]", "value": 0.3}, {"measurement": "Binding of Control serum LUMC to looped peptides of the protein M of SARS-CoV Urbani", "setting": "[3]", "value": 0.7}]}
{"sequence": "NLLLLFVTIYSHLLL", "values": [{"measurement": "Binding of serum 1a to linear peptides of protein X1 of SARS-CoV Urbani", "setting": "[1]", "value": 0.7}, {"measurement": "Binding of serum 1a to looped/cyclic peptide (PEPSCAN-ELISA)", "setting": "[1]", "value": 0.5}, {"measurement": "Binding of serum 1b to linear peptides of protein X1 of SARS-CoV Urbani", "setting": "[1]", "value": 0.5}, {"measurement": "Binding of serum 1b to looped/cyclic peptide (PEPSCAN-ELISA)", "setting": "[1]", "value": 0.4}, {"measurement": "Binding of serum 2 to linear peptides of protein X1 of SARS-CoV Urbani", "setting": "[1]", "value": 0.5}, {"measurement": "Binding of serum 2 to looped/cyclic peptide (PEPSCAN-ELISA)", "setting": "[1]", "value": 0.4}, {"measurement": "Binding of serum 6 to linear peptides of protein X1 of SARS-CoV Urbani", "setting": "[1]", "value": 0.4}, {"measurement": "Binding of serum 6 to looped/cyclic peptide (PEPSCAN-ELISA)", "setting": "[1]", "value": 0.2}, {"measurement": "Binding of serum 37 to linear peptides of protein X1 of SARS-CoV Urbani", "setting": "[1]", "value": 0.5}, {"measurement": "Binding of serum 37 to looped/cyclic peptide (PEPSCAN-ELISA)", "setting": "[1]", "value": 0.4}, {"measurement": "Binding of serum 62 to linear peptides of protein X1 of SARS-CoV Urbani", "setting": "[1]", "value": 0.4}, {"measurement": "Binding of serum 62 to looped/cyclic peptide (PEPSCAN-ELISA)", "setting": "[1]", "value": 0.5}, {"measurement": "Binding of serum London to linear peptides of protein X1 of SARS-CoV Urbani", "setting": "[1]", "value": 0.2}, {"measurement": "Binding of serum London to looped/cyclic peptide (PEPSCAN-ELISA)", "setting": "[1]", "value": 0.2}, {"measurement": "Binding of serum SARS-green to linear peptides of protein X1 of SARS-CoV Urbani", "setting": "[1]", "value": 0.1}, {"measurement": "Binding of serum SARS-green to looped/cyclic peptide (PEPSCAN-ELISA)", "setting": "[1]", "value": 0.2}, {"measurement": "Binding of serum SARS-yellow to linear peptides of protein X1 of SARS-CoV Urbani", "setting": "[1]", "value": 0.3}, {"measurement": "Binding of serum SARS-yellow to looped/cyclic peptide (PEPSCAN-ELISA)", "setting": "[1]", "value": 0.4}, {"measurement": "Binding of a rabbit serum to linear peptides", "setting": "[2]", "value": 0.2}, {"measurement": "Binding of a rabbit serum to looped peptides", "setting": "[2]", "value": 0.6}, {"measurement": "Binding of Control Serum Blood-Bank to Looped peptides", "setting": "[3]", "value": 0.5}, {"measurement": "Binding of Control serum Blood-bank to linear peptides", "setting": "[3]", "value": 0.4}, {"measurement": "Binding of Control serum LUMC to linear peptides", "setting": "[3]", "value": 0.5}, {"measurement": "Binding of Control serum LUMC to looped peptides", "setting": "[3]", "value": 0.6}]}
{"sequence": "NLVIGFLFLAWIMLL", "values": [{"measurement": "Binding of serum 1a to linear peptides of protein M of SARS-CoV Urbani", "setting": "[1]", "value": 0.7}, {"measurement": "Binding of serum 1a to looped/cyclic peptides of protein M of SARS-CoV Urbani", "setting": "[1]", "value": 0.7}, {"measurement": "Binding of serum 1b to linear peptides of protein M of SARS-CoV Urbani", "setting": "[1]", "value": 0.5}, {"measurement": "Binding of serum 1b to looped/cyclic peptides of protein M of SARS-CoV Urbani", "setting": "[1]", "value": 0.6}, {"measurement": "Binding of serum 2 to linear peptides of protein M of SARS-CoV Urbani", "setting": "[1]", "value": 0.5}, {"measurement": "Binding of serum 2 to looped/cyclic peptides of protein M of SARS-CoV Urbani", "setting": "[1]", "value": 0.5}, {"measurement": "Binding of serum 6 to linear peptides of protein M of SARS-CoV Urbani", "setting": "[1]", "value": 0.3}, {"measurement": "Binding of serum 6 to looped/cyclic peptides of protein M of SARS-CoV Urbani", "setting": "[1]", "value": 0.6}, {"measurement": "Binding of serum 37 to linear peptides of protein M of SARS-CoV Urbani", "setting": "[1]", "value": 0.6}, {"measurement": "Binding of serum 37 to looped/cyclic peptides of protein M of SARS-CoV Urbani", "setting": "[1]", "value": 0.6}, {"measurement": "Binding of serum 62 to linear peptides of protein M of SARS-CoV Urbani", "setting": "[1]", "value": 0.7}, {"measurement": "Binding of serum 62 to looped/cyclic peptides of protein M of SARS-CoV Urbani", "setting": "[1]", "value": 0.7}, {"measurement": "Binding of serum London to linear peptides of protein M of SARS-CoV Urbani", "setting": "[1]", "value": 0.3}, {"measurement": "Binding of serum London to looped/cyclic peptides of protein M of SARS-CoV Urbani", "setting": "[1]", "value": 0.3}, {"measurement": "Binding of serum SARS-green to linear peptides of protein M of SARS-CoV Urbani", "setting": "[1]", "value": 0.2}, {"measurement": "Binding of serum SARS-green to looped/cyclic peptides of protein M of SARS-CoV Urbani", "setting": "[1]", "value": 0.3}, {"measurement": "Binding of serum SARS-yellow to linear peptides of protein M of SARS-CoV Urbani", "setting": "[1]", "value": 0.0}, {"measurement": "Binding of serum SARS-yellow to looped/cyclic peptides of protein M of SARS-CoV Urbani", "setting": "[1]", "value": 0.5}, {"measurement": "Rabbit serum linear peptides", "setting": "[2]", "value": 0.2}, {"measurement": "Rabbit serum looped peptides", "setting": "[2]", "value": 0.2}, {"measurement": "Binding of Control Serum Blood-Bank to Looped peptides of the protein M of SARS-CoV Urbani", "setting": "[3]", "value": 0.6}, {"measurement": "Binding of Control serum Blood-bank to linear peptides of the protein M of SARS-CoV Urbani", "setting": "[3]", "value": 0.5}, {"measurement": "Binding of Control serum LUMC to linear peptides of the protein M of SARS-CoV Urbani", "setting": "[3]", "value": 0.3}, {"measurement": "Binding of Control serum LUMC to looped peptides of the protein M of SARS-CoV Urbani", "setting": "[3]", "value": 0.8}]}
